For assay [1], the system named is MDA‐MB‐468. As to the kind of experiment: Cell growth inhibition, CellTiter‐Glo (CTG). As to conditions: Homo sapiens, MDA-MB-468, 120 h; CTG, 5 days, n = 3. In kind it is cell-based. On the procedure: (§1) All cells were grown in a humidified incubator at 37 °C and 5% CO2.
(§2) […] […] Relative viability was calculated by normalizing the raw luminescence counts of the treated groups to those of the DMSO control groups. IC₅₀ values were calculated using sigmoidal dose‐response curve fitting with GraphPad Prism 9.0 software.

The test system of assay [2] is MDA‐MB‐436. Description: Cell growth inhibition, CellTiter‐Glo (CTG). In kind it is cell-based. As to conditions: CTG, 5 days, n = 3. On the procedure:
as §1
(§3) Growth viability was determined by the CellTiter‐Glo luminescent viability assay (Promega) 5 days after drug treatment. Cell viability was measured immediately after dosing (Day 0) and after 5 days of incubation using CellTiter‐Glo (CTG, Promega, G7573). Relative viability was calculated by normalizing the raw luminescence counts of the treated groups to those of the DMSO control groups. IC₅₀ values were calculated using sigmoidal dose‐response curve fitting with GraphPad Prism 9.0 software.

For assay [3], the system named is MCF‐7. As to the kind of experiment: Cell growth inhibition, CellTiter‐Glo (CTG). The assay is classed as cell-based. As to conditions: Homo sapiens, MCF7; n = 3. How it is done: as §3
For assay [4], the system named is MDA‐MB‐453. As to the kind of experiment: Cell growth inhibition, CellTiter‐Glo (CTG). The assay is classed as cell-based. The note with it: Homo sapiens. How it is done:
as §3

Assay [5] deals with MCF‐10A. As to the kind of experiment: Cell growth inhibition, normal breast cell line. In kind it is cell-based. As to conditions: Homo sapiens, MCF-10A; @30 µM; read-out: MCF‐10A inhibitory rate at certain concentration. On the procedure: as §3
Assay [6] has as its system MDA‐MB‐468 cells. As to the kind of experiment: Cell cycle assay, flow cytometry (PI). The note with it: MDA‐MB‐468, 48 h; A7, B8 0.5 and 1.0 µM, controls 1.0 µM. In kind it is cell-based. On the procedure: (§4) The cell cycle analysis was performed with cells seeded in 6‐well plates in growth media. The cells were allowed to attach overnight (8 h). The cultures were treated with different tested drugs for 48 h. After treatment, cells were collected and fixed with 70% pre‐cold ethanol in PBS and stored at −20 °C overnight. Then washed the cells with PBS twice, and incubated with 100 µg mL^−1 RNase A at 37 °C for 1 h, stained with propidium iodide for 30 min avoid light at room temperature. The stained cells were analyzed by flow cytometry. The percentages of cells in the G1, S, and G2/M phases were determined. The data were analyzed by FlowJo software (Tree Star, Inc., Ashland, OR).
(In general: A flow cytometer gives signals particle by particle.)

Assay [7] deals with MDA‐MB‐231. Description: Cell growth inhibition, CellTiter‐Glo (CTG). As to conditions: Homo sapiens, MDA-MB-231, 120 h, read-out: IC50 MDA‐MB‐231; CTG, 5 days, n = 3. In kind it is cell-based. On the procedure: as §1, §2
In assay [8] the test system is MDA‐MB‐231 cells. As to the kind of experiment: Cell cycle assay, flow cytometry (PI). The note with it: MDA‐MB‐231, 48 h; A7, B8 0.5 and 1.0 µM, controls 1.0 µM. The assay is classed as cell-based. On the procedure: as §4
Assay [9] concerns the target T1, ATR (Homo sapiens, UniProt Q13535).
T1 construct: purchased Eurofins 14-953
As to the kind of experiment: ATR kinase inhibition, Mobility Shift Assay. The assay is classed as biochemical. As to conditions: n = 3, mean ± SD. How it is done: The in vitro ATR kinase inhibitory activities were determined by ChemPartner Co., Ltd. (Shanghai, China) using the Mobility Shift Assay. The tested compound was dissolved with DMSO and diluted to 1000/3 × of the final desired highest inhibitor concentration in the reaction. […] The assay wells were incubated at 28 °C for 4 h.

Assay [10] deals with PARP1 (Homo sapiens, UniProt P09874). Description: PARP enzymatic inhibition ELISA (PARP1). The note with it: n = 3, mean ± SD. The assay is classed as biochemical. How it is done: The PARP activity assay was performed by ChemPartner (Shanghai, China). Each well was precoated with histone (final conc.: 100 ng mL^−1) diluted in PBS buffer (contains 10 mmol L^−1 NaH2PO4 and 150 mmol L^−1 NaCl, pH 7.4) by incubation at 4 °C overnight. […] The reaction was initiated by the addition of 10 µL of PARP (final conc.: 0.007 nM/well) at room temperature for 60 min. Add 20 µL of anti‐Poly/Mono‐ADP Ribose Rabbit mAb. Incubate for 1.5 h at room temperature and wash the plate three times using PBST buffer. […] Incubate for 1 h at room temperature and wash the plate three times using PBST buffer. Add 25 µL Femto‐ECL Substrate A and Femto‐ECL Substrate B (1:1) mix. Immediately read chemiluminescence on Envision (Revvity, USA).

Assay [11] concerns MDA‐MB‐231 cells. As to the kind of experiment: Cell apoptosis assay, Annexin V‐FITC/PI. The note with it: MDA‐MB‐231, 72 h. In kind it is cell-based. On the procedure: (§5) The cell apoptosis analysis was performed with cells seeded in 6‐well plates in growth media. The cells were allowed to attach overnight (8 h). The cultures were treated with different tested drugs for 72 h and evaluated using an Annexin V Flow Kit (BioLegend#B367750) according to the manufacturer's instructions. The data were analyzed by FlowJo software (Tree Star, Inc., Ashland, OR).

Assay [12] concerns MDA‐MB‐468 cells. As to the kind of experiment: Cell apoptosis assay, Annexin V‐FITC/PI. In kind it is cell-based. As to conditions: MDA‐MB‐468, 72 h. How it is done:
as §5

Where [13] appears, read: Homo sapiens, MDA-MB-436, 120 h.

One may read the IC50 as the midpoint of a concentration-inhibition curve.

Molecules are shown by their SMILES. Like-named read-outs stand apart in the source and are kept apart here.

T1 sequence (Q13535 whole entry): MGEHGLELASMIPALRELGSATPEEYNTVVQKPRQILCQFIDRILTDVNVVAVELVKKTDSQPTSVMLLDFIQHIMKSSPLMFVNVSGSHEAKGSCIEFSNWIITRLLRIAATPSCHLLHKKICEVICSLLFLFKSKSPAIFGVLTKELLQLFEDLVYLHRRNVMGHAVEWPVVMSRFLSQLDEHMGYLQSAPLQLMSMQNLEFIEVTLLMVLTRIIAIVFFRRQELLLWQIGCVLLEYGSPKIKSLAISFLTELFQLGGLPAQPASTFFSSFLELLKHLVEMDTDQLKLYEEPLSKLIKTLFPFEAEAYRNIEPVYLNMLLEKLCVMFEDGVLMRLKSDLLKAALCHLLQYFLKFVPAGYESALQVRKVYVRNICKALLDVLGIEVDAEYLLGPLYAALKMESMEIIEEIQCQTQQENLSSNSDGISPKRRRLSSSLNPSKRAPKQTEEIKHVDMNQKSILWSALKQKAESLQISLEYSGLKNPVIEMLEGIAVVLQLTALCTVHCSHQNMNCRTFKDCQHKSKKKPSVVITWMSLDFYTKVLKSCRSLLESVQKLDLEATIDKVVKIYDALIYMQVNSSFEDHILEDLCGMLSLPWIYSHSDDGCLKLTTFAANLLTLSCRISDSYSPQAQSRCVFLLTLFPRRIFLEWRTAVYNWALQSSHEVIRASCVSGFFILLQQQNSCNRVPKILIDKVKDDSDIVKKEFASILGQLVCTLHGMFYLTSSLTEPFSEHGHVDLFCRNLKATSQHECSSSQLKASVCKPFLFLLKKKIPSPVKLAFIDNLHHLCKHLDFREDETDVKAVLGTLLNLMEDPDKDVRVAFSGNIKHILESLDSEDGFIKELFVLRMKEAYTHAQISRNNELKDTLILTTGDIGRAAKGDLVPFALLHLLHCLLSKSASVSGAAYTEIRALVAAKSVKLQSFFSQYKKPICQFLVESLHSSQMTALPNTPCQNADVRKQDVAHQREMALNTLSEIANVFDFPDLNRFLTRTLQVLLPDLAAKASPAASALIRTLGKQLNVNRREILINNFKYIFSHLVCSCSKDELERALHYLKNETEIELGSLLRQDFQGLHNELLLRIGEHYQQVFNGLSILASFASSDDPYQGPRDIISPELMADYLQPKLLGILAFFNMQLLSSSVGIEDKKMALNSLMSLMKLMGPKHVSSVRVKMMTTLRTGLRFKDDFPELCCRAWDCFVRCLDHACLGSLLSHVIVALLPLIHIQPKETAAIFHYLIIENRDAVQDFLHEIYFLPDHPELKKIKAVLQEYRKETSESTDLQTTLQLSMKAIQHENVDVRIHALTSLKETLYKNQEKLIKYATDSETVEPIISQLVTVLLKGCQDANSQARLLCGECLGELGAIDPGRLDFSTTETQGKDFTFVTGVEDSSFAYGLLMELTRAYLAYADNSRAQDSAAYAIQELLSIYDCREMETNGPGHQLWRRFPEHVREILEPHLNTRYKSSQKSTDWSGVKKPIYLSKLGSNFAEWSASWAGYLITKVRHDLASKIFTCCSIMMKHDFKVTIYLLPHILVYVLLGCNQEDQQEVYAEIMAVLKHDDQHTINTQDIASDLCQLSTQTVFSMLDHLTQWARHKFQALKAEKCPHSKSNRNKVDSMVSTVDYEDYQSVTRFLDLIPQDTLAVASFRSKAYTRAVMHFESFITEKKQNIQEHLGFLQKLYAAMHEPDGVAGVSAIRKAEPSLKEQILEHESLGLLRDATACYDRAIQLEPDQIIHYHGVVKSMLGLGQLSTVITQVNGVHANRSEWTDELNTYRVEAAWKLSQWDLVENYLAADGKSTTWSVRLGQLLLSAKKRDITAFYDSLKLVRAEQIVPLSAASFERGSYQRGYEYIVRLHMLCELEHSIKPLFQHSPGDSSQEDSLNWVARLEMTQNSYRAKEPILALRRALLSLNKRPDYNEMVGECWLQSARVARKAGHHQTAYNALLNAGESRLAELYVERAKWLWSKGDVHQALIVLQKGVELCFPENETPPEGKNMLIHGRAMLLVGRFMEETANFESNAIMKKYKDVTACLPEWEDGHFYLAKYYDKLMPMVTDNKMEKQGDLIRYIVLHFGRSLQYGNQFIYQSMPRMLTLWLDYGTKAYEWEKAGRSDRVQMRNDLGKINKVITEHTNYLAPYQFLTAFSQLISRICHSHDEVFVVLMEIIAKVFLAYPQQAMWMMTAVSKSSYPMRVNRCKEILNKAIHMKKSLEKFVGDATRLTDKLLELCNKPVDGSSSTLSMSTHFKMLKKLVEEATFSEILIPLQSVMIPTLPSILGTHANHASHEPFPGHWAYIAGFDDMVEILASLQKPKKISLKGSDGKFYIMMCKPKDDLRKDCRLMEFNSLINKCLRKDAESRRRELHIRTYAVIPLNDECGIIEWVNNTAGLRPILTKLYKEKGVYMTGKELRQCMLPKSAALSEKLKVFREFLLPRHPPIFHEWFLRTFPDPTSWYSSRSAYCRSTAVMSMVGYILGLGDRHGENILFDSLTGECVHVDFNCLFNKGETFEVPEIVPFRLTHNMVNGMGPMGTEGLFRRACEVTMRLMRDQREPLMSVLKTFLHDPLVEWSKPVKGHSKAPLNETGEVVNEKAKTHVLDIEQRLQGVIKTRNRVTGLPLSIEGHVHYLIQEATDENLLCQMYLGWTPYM
T1 sequence (Q8WXE1 whole entry partner): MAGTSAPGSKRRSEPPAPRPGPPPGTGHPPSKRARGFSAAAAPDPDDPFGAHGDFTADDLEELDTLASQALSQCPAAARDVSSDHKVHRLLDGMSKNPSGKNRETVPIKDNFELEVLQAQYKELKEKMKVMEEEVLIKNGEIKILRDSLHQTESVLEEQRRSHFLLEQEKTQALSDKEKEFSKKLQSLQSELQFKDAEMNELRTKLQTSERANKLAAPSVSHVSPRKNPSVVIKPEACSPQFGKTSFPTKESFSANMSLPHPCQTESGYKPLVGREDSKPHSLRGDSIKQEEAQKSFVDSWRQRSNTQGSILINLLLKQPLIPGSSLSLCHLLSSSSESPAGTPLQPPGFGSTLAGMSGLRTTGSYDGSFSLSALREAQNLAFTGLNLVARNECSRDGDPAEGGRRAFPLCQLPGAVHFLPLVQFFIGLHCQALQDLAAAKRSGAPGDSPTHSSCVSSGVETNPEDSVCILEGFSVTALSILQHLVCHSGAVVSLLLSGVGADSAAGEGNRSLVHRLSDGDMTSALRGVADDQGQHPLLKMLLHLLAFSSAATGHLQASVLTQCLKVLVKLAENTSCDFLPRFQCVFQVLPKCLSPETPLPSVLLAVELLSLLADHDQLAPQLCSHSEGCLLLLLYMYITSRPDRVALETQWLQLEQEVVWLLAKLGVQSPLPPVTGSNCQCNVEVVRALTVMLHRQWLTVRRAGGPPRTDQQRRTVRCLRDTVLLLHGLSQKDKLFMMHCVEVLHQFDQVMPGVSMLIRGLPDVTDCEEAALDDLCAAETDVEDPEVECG
PARP1, sequence (P09874 whole entry): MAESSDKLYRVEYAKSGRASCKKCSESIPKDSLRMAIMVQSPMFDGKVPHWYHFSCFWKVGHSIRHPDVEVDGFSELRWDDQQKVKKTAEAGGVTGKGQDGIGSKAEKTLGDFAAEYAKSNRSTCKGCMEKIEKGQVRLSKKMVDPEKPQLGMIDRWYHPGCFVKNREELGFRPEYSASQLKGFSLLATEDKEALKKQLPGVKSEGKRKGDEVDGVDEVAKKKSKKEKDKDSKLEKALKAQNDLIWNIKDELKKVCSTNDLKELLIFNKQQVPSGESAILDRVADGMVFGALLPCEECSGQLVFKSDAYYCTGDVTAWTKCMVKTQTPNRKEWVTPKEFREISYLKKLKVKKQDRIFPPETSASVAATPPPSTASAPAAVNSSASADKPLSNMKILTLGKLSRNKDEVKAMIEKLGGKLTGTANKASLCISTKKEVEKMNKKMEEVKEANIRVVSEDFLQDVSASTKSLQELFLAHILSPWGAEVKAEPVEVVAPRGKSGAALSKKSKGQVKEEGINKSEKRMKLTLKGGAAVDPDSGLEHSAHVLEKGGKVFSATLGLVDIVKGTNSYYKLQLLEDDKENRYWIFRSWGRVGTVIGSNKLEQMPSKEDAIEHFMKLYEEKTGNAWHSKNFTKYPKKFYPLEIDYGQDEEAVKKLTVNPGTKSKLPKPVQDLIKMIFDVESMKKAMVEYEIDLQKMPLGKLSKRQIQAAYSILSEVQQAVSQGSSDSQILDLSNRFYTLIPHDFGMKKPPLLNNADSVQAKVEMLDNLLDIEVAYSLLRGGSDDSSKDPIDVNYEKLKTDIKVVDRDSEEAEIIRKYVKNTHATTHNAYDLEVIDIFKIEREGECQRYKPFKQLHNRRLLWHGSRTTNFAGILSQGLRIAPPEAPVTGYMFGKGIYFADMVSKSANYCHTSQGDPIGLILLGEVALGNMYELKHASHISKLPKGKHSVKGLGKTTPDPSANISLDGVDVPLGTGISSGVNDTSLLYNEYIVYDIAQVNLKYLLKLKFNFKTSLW

As for `C[C@@H]1COCCN1c1cc(C2([S@](C)(=N)=O)CC2)nc(-c2cc[nH]c3nccc2-3)n1` [8 (AZD6738), Ceralasertib, reference compound], the IC50 was found to be 18.6 ± 1.75 µM in assay [1]; 3.84 ± 0.52 µM in [2]; 3.8 µM in assay [2] (setting [13]); 2.01 ± 0.43 µM in assay [3]; 1.46 ± 0.17 µM in [4] (MDA-MB-453, n = 3, read-out: IC50 MAD‐MB‐453). In assay [5], the inhibition at 30 µM amounted to 25.9%. Also, the “effect on cell cycle distribution” value in [6] was “did not significantly change the cell cycle distribution”.

For `O=C(c1cc(Cc2n[nH]c(=O)c3ccccc23)ccc1F)N1CCN(C(=O)C2CC2)CC1` [1 (Olaparib), Olaparib, reference compound], the IC50 is 21.9 ± 2.36 µM in [7]; 10.5 ± 0.59 µM in assay [1]; 4.53 ± 0.21 µM in assay [2]; 4.5 µM in assay [2] (setting [13]); above 30 µM in assay [3]; above 30 µM in [4] (MDA-MB-453, read-out: IC50 MAD‐MB‐453). The inhibition at 30 µM in assay [5] was 14.5%. The “effect on cell cycle distribution” value in assay [8] and in assay [6] was “did not significantly change the cell cycle distribution” each time.

Regarding `C[C@@H]1COCCN1c1cc(C2(NC(=O)c3ccc(C(=O)N4CCN(C(=O)c5cc(Cc6n[nH]c(=O)c7ccccc67)ccc5F)CC4)cc3)CC2)nc(-c2ccnc3[nH]ccc23)n1` [Compound A7, (R) ‐4‐(4‐(2‐fluoro‐5‐((4‐oxo‐3,4‐dihydrophthalazin‐1‐yl)methyl)benzoyl)piperazine‐1‐carbonyl)‐N‐(1‐(6‐(3‐methylmorpholino)‐2‐(1H‐pyrrolo[2,3‐b]pyridin‐4‐yl)pyrimidin‐4‐yl)cyclopropyl)benzamide], the IC50 in [9] was determined as 0.043 ± 0.007 µM; in [10], 0.00056 ± 0.00021 µM; in [7], 13.4 ± 3.44 µM; in assay [1], 0.23 ± 0.07 µM; in assay [2] (setting [13]) it was 0.015 ± 0.001 µM. Also, the “effect on cell cycle distribution” value in assay [8] and in [6] was “did not demonstrate any significant effects on the cell cycle” in each case. Also, the “ability to induce apoptosis vs combination of AZD6738 and Olaparib” value in assay [11] and in assay [12] was “does not show a significant enhancement” throughout.

For the origin of these results see paper PMC12362783 (Advanced Science, 2025).
